Source: article PMC12217481, “Structure and mechanism of taniborbactam inhibition of the cefepime-hydrolyzing, partial R2-loop deletion Pseudomonas-derived cephalosporinase variant PDC-88” (Antimicrobial Agents and Chemotherapy, 2025)
Converted amounts (≈) assume the structure as drawn. Like-named read-outs stand apart in the source and are kept apart here.

Columns and labels:
PDC-88 [1] = molecular target: T1, PDC-88 (Pseudomonas aeruginosa, UniProt P24735, DEL316-317/G27D/G391A/T105A/V205L/V356I); test: Spectrophotometric β-lactam hydrolysis (progress curves, steady-state kinetics) by PDC-88; type: biochemical
T1 construct: NdeI 5′-[…]-3ʹ and BamHI 5ʹ-[…]-3ʹ; His tag removed) (N); made in house; host or cells: E. coli BL21-CodonPlus (DE3)-RP, pET24a(+)
Method: (§1) In order to determine the impact of the PDC-88 variant on hydrolysis, we determined hydrolysis progress curves for PDC-3, PDC-88, and a strongly hydrolyzing comparator (NDM-1 or PER-2) for cefepime (FEP, Fig. 3A), ceftazidime (CAZ, Fig. 3B), ceftolozane (TOL, Fig. 3C), and aztreonam (ATM, Fig. 3D).
(§2) β-Lactamase kinetic and inhibitor constants were determined using an Agilent 8453 UV-Visible Spectrophotometer to record progress curves and determine initial rates and other kinetic parameters as appropriate. Reactions were carried out in 1× phosphate-buffered saline (PBS) (pH 7.4) at room temperature in a 0.2 cm path-length quartz cuvette (Hellma Analytics). Reads were taken every 10 s to minimize UV-mediated background hydrolysis.
(§3) The extinction coefficients used were: nitrocefin, Δε482 = 17,400 M^−1 cm^−1, and cefepime, Δε260 = −10,000 M^−1 cm^−1.
(§4) The kinetic constants KM and Vmax were determined using a nonlinear least-squares regression of the data to the Henri-Michaelis-Menten equation (equation 1) in Origin Version 2020b (OriginLab, Northampton, MA), where v is the velocity of the reaction; Vmax is the theoretical maximum velocity; KM is the Michaelis constant; and [S] is the substrate concentration: […]

PDC-88 [2] = test: as above; type: biochemical, Pseudomonas aeruginosa; settings: cefepime as substrate
Method: as §1, §2, §3, §4

PDC-3 = molecular target: T2, PDC-3 (Pseudomonas aeruginosa, UniProt P24735, T105A); test: Spectrophotometric β-lactam hydrolysis (progress curves, steady-state kinetics) by PDC-3; type: biochemical
T2 construct: The PDC-3 expression construct was created in a similar manner but starting with a previously described pBC SK(−) vector; made in house; host or cells: E. coli BL21-CodonPlus (DE3)-RP, pET24a(+)
Method: as §1, §2, §3, §4

[3] = test system: E. coli DH10B/pTU626 (PDC-89); test: Broth microdilution MIC, isogenic E. coli expressing PDC-89; type: cell-based; settings: Escherichia coli
Method: Genetic constructs used for minimum inhibitory concentration (MIC) testing were designed by Venatorx Pharmaceuticals and codon-optimized for use in E. coli and synthesized by Twist Bioscience as described previously ([9]). […] DH10B cells expressing an empty pET24a(+) vector (Novagen) were also grown, and the plasmid purified. Both pCR4-TOPO-PDC-88 and empty pET24a(+) were cut with BamHI and NdeI, the digests run on low-melting point agarose gels, and the bands of interest excised and ligated to yield a PDC-88 expressing pET24a(+) construct with the His tag removed. The PDC-3 expression construct was created in a similar manner but starting with a previously described pBC SK(−) vector ([42]). The final plasmids were grown in E. coli DH10B cells and purified.
Modal broth microdilution MICs (or median broth microdilution MICs where appropriate) were determined in accordance with Clinical and Laboratory Standards Institute (CLSI) M07 guidelines ([43]). Isogenic E. coli DH10B cells expressing the abovementioned plasmid-encoded PDC constructs were used. […] CLSI quality control strains Escherichia coli NCTC 13353, E. coli ATCC 35218, and Klebsiella pneumoniae ATCC 700603 were used during testing ([24]).

[4] = FEP hydrolysis by PDC-88, 1× PBS pH 7.4, room temperature
[5] = FEP hydrolysis by PDC-3, 1× PBS pH 7.4, room temperature

## CO/N=C(\C(=O)N[C@@H]1C(=O)N2C(C(=O)[O-])=C(C[N+]3(C)CCCC3)CS[C@H]12)c1csc(N)n1 [FEP, cefepime]
PDC-88 [1]; [4]
  Km: 16 ± 1 µM
  kcat: 0.16 ± 0.01 s⁻¹
PDC-88 [1]; PDC-88, over 900 s, compared to PDC-3
  hydrolysis progress curve: increased hydrolysis
PDC-88 [2]
  decrease of KM, PDC-88 compared to PDC-3: 12.8 fold
  decrease of kcat, PDC-88 compared to PDC-3: 1.6 fold
  higher catalytic efficiency (kcat/KM) of PDC-88 compared to PDC-3: approximately 8.3 fold
PDC-88 [2]; listed as cefepime
  higher catalytic efficiency (kcat/KM) of PDC-88 compared to PDC-3: 8.3 fold
PDC-3; [5]
  Km: 205 ± 9 µM
  kcat: 0.25 ± 0.02 s⁻¹
PDC-3; PDC-3, over 900 s, versus UV-mediated background
  hydrolysis progress curve: slightly above background
[3]; read-out: MIC FEP AVI
  MIC: 0.25 µg/mL (≈ 0.52 µM)
[3]; read-out: MIC FEP TZB
  MIC: 16 µg/mL (≈ 33.3 µM)
[3]; E. coli DH10B/pTU626 (PDC-89), FEP with TAN at constant 4 µg/mL, read-out: MIC FEP TAN
  MIC: 0.25 µg/mL (≈ 0.52 µM)
[3]; E. coli DH10B/pTU626 (PDC-89), read-out: MIC FEP Alone
  MIC: 32 µg/mL (≈ 66.6 µM)
